Results from patent US20260216383A1, “RADIOLABELED MEDICINE” (National University Corporation Chiba University, priority 2022, published 2026).

System: BBMVs (kidney brush border membrane vesicles)
Assay: Incubation test with BBMVs (kidney brush border membrane vesicles)
Format: in vitro ADME, male Wistar rat
Conditions: 37° C., two hours
Experimental: Kidney brush border membrane vesicles (BBMVs) were prepared from the kidney of a male Wistar rat (200 to 250 g) in accordance with the method of Hori et al. [Biochemical Pharmacology 45: 1763-1768, 1993]. All the operations were carried out on ice. From four to five times the mass of 300 mM mannitol and a 12 mM tris hydrochloride buffer solution (pH 7.1) containing 5 mM EGTA were added to the cortex, and the mixture was homogenized with a Polytron Homogenizer PT-3100 (manufactured by Kinematica GmgH) for two minutes, and diluted with the same buffer solution, so as to obtain a 10% homogenate. […] The BBMVs thus prepared were evaluated for the incorporation of the lysosome enzyme by measuring the activity of β-galactosidase as a lysosome marker enzyme using p-nitrophenyl-β-D-galacto-pyranoside [Plant Physiology 55: 94-98, 1975]. Further, the activities of γ-glutamyl transferase and aminopeptidase were measured by using L-γ-glutamyl-p-nitroanilide and L-leucine-p-nitroanilide in accordance with the methods of Glossmann et al. [FEBS Letters 19: 340-344, 1972], Kramers et al. [European Journal of Biochemistry 99: 345-351, 1979].
The incubation test of BBMVs and a ^67Ga-labeled low-molecular model substrate was carried out in the following manner. […] The supernatant obtained was analyzed by HPLC at a flow rate of 1 mL/min. using an Imtakt Unison US-C18 150 mm×4.6 mm column. […]

^67Ga-NOTA-Phe-Gly-Lys(Bzo) [^67Ga-labeled NOTA-Phe-Gly-Lys(Bzo)]
amount of radioactive metabolite released by BBMVs, compared with ^67Ga-labeled NOTA-Met-Val-Lys(Bzo): lower than the amount of ^67Ga-labeled-NOTA-Met released from ^67Ga-labeled NOTA-Met-Val-Lys(Bzo)
radioactive metabolite peak observed after incubation with BBMVs (HPLC of supernatant): A peak of ^67Ga-labeled-NOTA-Phe-Gly was observed, not a peak of ^67Ga-labeled-NOTA-Phe
